{
  "source": "patent US11208446B2",
  "about": "“Agents and methods for treating CBP-dependent cancers” (priority 2016, dated 2021)",
  "key": {"[1]": {"molecular_target": "T1, CBP in MV411 human AML cells (Homo sapiens, UniProt Q92793)", "T1 construct": "endogenous in cells; host or cells: MV411 human AML cells (lysate)", "T1 sequence (Q92793 whole entry)": "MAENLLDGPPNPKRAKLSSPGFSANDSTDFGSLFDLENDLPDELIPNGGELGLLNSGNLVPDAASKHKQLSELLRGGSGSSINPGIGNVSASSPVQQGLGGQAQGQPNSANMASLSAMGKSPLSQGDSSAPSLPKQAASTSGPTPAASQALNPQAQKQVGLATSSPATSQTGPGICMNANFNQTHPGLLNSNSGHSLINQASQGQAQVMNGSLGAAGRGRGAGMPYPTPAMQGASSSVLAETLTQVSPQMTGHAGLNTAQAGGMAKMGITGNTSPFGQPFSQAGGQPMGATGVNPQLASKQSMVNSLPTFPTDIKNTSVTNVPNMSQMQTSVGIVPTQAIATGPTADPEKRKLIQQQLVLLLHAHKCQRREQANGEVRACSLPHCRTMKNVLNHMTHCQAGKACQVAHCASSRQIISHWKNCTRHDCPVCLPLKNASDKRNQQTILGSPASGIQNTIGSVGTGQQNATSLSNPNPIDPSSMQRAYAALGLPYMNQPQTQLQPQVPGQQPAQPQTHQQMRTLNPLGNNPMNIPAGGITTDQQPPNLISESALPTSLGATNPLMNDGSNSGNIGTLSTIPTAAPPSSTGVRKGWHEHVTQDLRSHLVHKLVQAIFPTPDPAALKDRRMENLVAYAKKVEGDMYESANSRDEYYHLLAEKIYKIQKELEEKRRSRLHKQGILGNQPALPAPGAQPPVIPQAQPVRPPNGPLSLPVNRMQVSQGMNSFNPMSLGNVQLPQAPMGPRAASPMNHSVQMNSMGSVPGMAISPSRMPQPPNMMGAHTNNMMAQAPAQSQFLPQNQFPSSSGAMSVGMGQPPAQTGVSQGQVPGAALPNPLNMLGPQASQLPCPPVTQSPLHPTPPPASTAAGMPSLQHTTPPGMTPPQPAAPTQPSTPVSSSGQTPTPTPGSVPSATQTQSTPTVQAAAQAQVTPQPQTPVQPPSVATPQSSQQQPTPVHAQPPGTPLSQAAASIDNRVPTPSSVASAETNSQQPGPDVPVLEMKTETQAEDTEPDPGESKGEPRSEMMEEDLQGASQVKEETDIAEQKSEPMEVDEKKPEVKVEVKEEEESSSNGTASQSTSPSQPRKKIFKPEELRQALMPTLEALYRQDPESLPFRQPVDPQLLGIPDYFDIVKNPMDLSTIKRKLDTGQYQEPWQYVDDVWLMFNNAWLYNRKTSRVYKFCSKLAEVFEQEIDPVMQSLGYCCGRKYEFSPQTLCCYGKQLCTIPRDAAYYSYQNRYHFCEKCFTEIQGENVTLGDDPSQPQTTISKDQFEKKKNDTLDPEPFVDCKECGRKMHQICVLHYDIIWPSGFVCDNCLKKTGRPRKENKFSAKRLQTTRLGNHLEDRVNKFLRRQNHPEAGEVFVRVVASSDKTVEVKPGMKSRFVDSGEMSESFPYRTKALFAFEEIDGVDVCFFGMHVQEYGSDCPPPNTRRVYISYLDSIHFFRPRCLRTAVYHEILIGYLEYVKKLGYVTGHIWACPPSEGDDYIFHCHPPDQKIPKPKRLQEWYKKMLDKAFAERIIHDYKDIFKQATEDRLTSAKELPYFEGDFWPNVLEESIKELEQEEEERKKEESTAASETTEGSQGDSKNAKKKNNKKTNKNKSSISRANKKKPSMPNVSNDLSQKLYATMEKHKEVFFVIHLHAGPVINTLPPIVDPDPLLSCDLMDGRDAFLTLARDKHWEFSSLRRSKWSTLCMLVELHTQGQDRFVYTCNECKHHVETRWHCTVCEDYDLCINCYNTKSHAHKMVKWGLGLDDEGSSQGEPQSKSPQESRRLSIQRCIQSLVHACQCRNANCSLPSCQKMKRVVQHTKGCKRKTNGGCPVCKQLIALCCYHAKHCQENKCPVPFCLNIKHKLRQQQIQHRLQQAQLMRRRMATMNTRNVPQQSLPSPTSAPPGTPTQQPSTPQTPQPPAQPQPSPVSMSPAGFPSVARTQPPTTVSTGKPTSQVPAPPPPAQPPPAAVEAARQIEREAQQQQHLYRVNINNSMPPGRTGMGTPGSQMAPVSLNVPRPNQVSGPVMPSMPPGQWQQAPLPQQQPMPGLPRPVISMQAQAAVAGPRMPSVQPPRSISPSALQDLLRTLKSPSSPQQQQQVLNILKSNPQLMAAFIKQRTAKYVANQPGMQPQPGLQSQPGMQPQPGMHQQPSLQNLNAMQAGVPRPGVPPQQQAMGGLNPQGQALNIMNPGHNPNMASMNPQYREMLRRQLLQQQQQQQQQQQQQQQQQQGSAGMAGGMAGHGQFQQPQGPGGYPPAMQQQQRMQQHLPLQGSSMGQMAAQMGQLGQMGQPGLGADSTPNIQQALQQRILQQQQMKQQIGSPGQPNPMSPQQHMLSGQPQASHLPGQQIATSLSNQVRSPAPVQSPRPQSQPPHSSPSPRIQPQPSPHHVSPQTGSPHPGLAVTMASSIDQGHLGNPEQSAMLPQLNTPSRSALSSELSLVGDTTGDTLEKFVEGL", "test": "Streptavidin affinity purification (pull-down) of CBP with biotinylated peptides, Western blot", "type": "binding", "settings": "AML cell lysates, competition with non-biotinylated peptide", "method": "Western blot analysis. Cells were lysed in RIPA buffer (Thermo Fisher) supplemented with a protease inhibitor mix comprised of AEBSF (0.5 mM concentration, Santa Cruz, SC-202041B), Bestatin (0.01 mM concentration, Fisher/Alfa Aesar, J61106-MD), Leupeptin (0.1 mM concentration, Santa Cruz, SC-295358B), and Pepstatin (0.001 mM concentration, Santa Cruz, SC-45036A). Lysates were mechanically disrupted using Covaris S220 adaptive focused sonicator, according to the manufacturer's instructions (Covaris, Woburn, Calif.). Lysates were cleared by centrifugation for 15 min at 18,000×g and clarified lysates were quantified using the bicinchoninic acid assay (Pierce). Clarified lysates (20 μg of protein) were resolved using sodium dodecyl sulfate-polyacrylamide gel electrophoresis, and electroeluted using the Immobilon FL PVDF membranes (Millipore, Billerica, Mass., USA). Membranes were blocked using the Odyssey Blocking buffer (Li-Cor, Lincoln, Nebr., USA). […] Blotted membranes were visualized using secondary antibodies conjugated to IRDye 800CW or IRDye 680RD (Goat anti-rabbit, 1:15,000, and goat anti-mouse, 1:15,000) and the Odyssey CLx fluorescence scanner, according to manufacturer's instructions (Li-Cor, Lincoln, Nebr., USA). […]"}, "purified CBP-KIX domain": {"molecular_target": "T2, purified CBP-KIX domain (Homo sapiens, UniProt Q92793)", "T2 construct": "Expression and purification of recombinant CBP KIX domain; GST (N, cleaved yes); made in house; host or cells: E. coli BL21(DE3)", "T2 sequence (Q92793 587-666 limits assumed)": "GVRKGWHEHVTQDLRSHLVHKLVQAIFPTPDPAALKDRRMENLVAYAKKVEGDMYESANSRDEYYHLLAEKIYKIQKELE", "test": "Microscale thermopheresis (MST) binding of FITC-conjugated peptides to purified KIX", "settings": "FITC-conjugated peptide at fixed concentration, KIX 0.015 to 50 μM, n=3", "method": "Expression and purification of recombinant CBP KIX domain. BL21(DE3) cells (Invitrogen) transformed with pGEX-KIX plasmid were induced at 37° C. with isopropyl β-D-1-thiogalactopyranoside for 3 hours. Cells were lysed in 50 mM Tris-HCl pH 7.3, 150 mM NaCl, 0.1% TWEEN-20, 1 mM DTT, 5 mM EDTA, supplemented with protease inhibitors described above and sonicated for ten minutes (15 sec on, 15 sec off, 40% amplitude) using the Misonix probe sonicator (Qsonica, Newtown, Conn.). Lysate was cleared by centrifugation for 1 h at 21,800×g at 4° C. Cleared lysate was incubated with 4 mL glutathione agarose resin slurry (GoldBio) for 1 h at 4° C. to capture GST-KIX. Resin was washed four times with 50 mM Tris-HCl pH 7.4, 150 mM NaCl. KIX domain was cleaved from GST by incubation of resin-bound GST-KIX with 160 U thrombin (GE Healthcare) overnight at room temperature. Resin was centrifuged at 500×g for 5 min. Supernatant containing cleaved KIX was collected and dialyzed at 4° C. against 50 mM MOPS pH 6.5, 50 mM NaCl, 10% glycerol, 1 μM tris-2-carboxyethylphosphine. KIX was purified using a linear gradient of 50 mM to 1 M NaCl by cation exchange chromatography using MonoS 5/50 GL column (GE Healthcare). Fractions containing purified KIX were dialyzed against 50 mM potassium phosphate pH 5.5, 150 mM NaCl, 10 μM tris-2-carboxyethylphosphine, 30% glycerol, and stored at −80° C. […]"}, "MOLM13 cells": {"system": "MOLM13 cells", "test": "Confocal microscopy of intranuclear penetration of FITC-labelled peptide", "type": "cell-based", "settings": "50 nM peptide, 20 minutes, human AML cell line", "method": "Confocal microscopy. Live confocal imaging was performed using the Leica SP8 confocal microscope and 63× objective with 1 μm z-stack images. Cells were applied to a poly-L-lysine coated chambered Nunc Lab-tek II slide and incubated for 2 hours at 37° C. Prior to imaging, FITC-conjugated peptides were added to cell suspensions at a concentration of 50 nM. Cells were counter-stained using Hoechst 33342 and Mitotracker Red CMX ROS (MProbes) for 10 minutes at a final dilution of 1:10,000 prior to imaging."}, "MYB:CBP complex": {"molecular_target": "T3, MYB:CBP complex (Homo sapiens, UniProt Q92793)", "T3 construct": "endogenous in cells; host or cells: MV411 human AML cells", "T3 sequence (Q92793 2-2442 limits assumed, one chain of several)": "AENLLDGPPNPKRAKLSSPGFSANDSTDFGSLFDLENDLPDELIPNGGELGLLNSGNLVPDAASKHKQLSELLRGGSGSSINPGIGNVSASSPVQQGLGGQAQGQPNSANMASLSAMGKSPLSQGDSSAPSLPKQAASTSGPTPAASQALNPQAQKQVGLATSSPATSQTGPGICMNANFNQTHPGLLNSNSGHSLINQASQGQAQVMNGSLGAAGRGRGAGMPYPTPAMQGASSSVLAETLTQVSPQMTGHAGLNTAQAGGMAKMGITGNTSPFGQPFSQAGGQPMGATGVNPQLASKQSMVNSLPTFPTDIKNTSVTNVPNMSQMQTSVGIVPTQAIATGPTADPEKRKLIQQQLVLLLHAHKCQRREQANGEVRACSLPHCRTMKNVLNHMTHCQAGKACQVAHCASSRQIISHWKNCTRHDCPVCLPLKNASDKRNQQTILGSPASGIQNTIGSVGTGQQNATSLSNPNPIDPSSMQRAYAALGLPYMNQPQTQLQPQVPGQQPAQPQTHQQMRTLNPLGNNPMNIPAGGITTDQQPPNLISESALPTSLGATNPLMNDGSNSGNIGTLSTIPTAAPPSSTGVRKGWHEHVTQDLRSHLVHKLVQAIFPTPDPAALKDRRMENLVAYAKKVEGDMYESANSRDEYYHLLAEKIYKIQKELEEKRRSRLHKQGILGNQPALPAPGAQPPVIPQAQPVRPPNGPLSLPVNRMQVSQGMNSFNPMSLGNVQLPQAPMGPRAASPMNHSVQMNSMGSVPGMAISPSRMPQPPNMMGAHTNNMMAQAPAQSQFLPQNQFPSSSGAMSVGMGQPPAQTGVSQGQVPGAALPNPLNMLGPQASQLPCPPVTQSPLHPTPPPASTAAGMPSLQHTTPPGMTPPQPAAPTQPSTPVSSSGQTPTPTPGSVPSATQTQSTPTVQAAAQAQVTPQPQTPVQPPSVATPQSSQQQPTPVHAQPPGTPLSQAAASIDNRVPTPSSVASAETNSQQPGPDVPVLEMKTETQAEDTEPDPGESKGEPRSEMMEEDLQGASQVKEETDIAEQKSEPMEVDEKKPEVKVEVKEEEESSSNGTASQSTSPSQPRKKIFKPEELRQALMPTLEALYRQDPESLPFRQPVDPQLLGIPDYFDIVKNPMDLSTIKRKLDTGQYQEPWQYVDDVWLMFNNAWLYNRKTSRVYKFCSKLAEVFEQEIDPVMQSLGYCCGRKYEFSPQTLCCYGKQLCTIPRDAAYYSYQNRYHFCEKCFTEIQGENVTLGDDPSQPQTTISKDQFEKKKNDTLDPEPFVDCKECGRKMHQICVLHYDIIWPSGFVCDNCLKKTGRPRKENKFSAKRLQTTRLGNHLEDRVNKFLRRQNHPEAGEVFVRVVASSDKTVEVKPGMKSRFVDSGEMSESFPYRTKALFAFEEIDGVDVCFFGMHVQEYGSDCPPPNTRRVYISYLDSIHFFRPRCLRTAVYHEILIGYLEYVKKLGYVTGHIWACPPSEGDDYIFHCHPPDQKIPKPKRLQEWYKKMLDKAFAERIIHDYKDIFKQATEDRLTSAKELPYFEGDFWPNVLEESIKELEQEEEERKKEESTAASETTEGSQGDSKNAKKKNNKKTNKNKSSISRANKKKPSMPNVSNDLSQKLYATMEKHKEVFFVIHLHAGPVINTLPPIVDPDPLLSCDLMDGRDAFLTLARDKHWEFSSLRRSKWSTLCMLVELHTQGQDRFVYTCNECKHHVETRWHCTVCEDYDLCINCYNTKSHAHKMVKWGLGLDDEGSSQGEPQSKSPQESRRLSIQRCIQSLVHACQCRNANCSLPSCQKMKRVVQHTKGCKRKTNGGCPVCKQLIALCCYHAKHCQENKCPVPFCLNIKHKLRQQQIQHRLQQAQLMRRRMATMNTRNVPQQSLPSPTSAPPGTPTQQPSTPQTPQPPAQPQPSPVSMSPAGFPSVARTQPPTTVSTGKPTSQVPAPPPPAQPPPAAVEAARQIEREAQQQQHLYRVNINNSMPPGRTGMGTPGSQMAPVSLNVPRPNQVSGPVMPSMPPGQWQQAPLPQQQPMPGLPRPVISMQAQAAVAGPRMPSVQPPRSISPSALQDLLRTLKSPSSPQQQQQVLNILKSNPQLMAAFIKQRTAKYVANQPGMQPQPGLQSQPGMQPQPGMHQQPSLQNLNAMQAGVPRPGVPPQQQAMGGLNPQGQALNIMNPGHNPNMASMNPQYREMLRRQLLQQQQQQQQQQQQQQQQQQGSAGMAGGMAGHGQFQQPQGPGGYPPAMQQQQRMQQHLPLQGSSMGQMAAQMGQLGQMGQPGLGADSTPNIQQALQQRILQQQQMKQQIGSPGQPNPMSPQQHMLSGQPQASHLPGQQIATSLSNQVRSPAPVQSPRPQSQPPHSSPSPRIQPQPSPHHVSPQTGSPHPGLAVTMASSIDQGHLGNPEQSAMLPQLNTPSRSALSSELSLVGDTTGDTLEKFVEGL", "test": "Dissociation of MYB:CBP complex in AML cells (co-immunoprecipitation)", "type": "cell-based", "method": "Co-immunoprecipitation analysis. 7.5 μg of indicated antibodies were conjugated to 1 mg M-270 Epoxy-coated magnetic beads (Invitrogen) according to manufacturer's instructions. 1×10^7 MV411 cells were collected and washed in cold PBS. Washed cell pellets were resuspended in 350 μL cold lysis buffer (50 mM Tris-HCl pH 7.4, 150 mM NaCl, 1 mM EDTA, 1 mM DTT, 0.5% Triton X-100, supplemented with protease inhibitors described above) and incubated on ice for 10 min. Cells were mechanically disrupted using the Covaris […] adaptive focused sonicator at 50 W peak power, 10% duty cycle, 200 cycles per burst at 4° C. for 300 sec. Lysate was clarified by centrifugation for 15 min at 18,000×g at 4° C. Supernatant (cleared lysate) was diluted in 1.05 mL dilution buffer (50 mM Tris-HCl, 150 mM NaCl, 1 mM EDTA, 1 mM DTT, 10% glycerol, supplemented with protease inhibitors described above for a total volume of 1.4 mL. Diluted lysate was added to 1 mg beads, and immunoprecipitation proceeded for 3 h at 4° C. with rotation. Beads were then washed with lysis buffer twice. Proteins were eluted in 20 μL EB buffer (Invitrogen) for 5 min at room temperature, and eluate was neutralized with 2 μL 1M Tris pH 11. Samples were prepared for Western blot by addition of Laemmli buffer with 50 mM DTT and incubation at 95° C. for 5 min. Presence of MYB and CBP was identified by Western blot as described above."}, "[2]": {"system": "MOLM13, MV411, ML2, and HL60 cell lines", "test": "Cell viability, live cell count by Trypan blue exclusion", "type": "cell-based, human", "settings": "10 μM and 20 μM every 48 hours for 6 days", "method": "Cell culture. The human AML lines MV411, MOLM13, ML2, and HL60 were obtained from the American Type Culture Collection (ATCC, Manassas, Va., USA). Umbilical cord blood was obtained from the New York Blood Center. The identity of all cell lines was verified by STR analysis (Genetica DNA Laboratories, Burlington, N.C., USA) and absence of Mycoplasma sp. contamination was determined using Lonza MycoAlert (Lonza Walkersville, Inc., Walkersville, Md., USA). Cell lines were cultured in 5% CO2 in a humidified atmosphere at 37° C. in RPMI medium supplemented with 10% fetal bovine serum (FBS) and antibiotics (100 U/ml penicillin and 100 μg/ml streptomycin). Cell viability analysis. Cells were resuspended and plated at a concentration of 2×10^5 cells in 200 μL in 96-well tissue culture plates. Media with peptides was replaced every 48 hours. To assess the number of viable cells, cells were resuspended in PBS and 10 μL mixed in a 1:1 ratio with 0.4% Trypan Blue (Thermo Fisher) and counted using a hematocytometer (Hausser Scientific, Horsham, Pa., USA). To assess viability using an ATP-based assay, cell viability was assessed using the CellTiter-Glo Luminescent Viability assay, according to the manufacturer's instructions (Promega). Luminescence was recorded using the Infinite M1000Pro plate reader using integration time of 250 milliseconds (Tecan)."}},
  "note": "Entries after “also recorded” stand apart in the source; their conditions may differ. *: point of attachment. Biotin = O=C1N[C@H]2[C@H](CS[C@H]2CCCCC(=O)*)N1",
  "data": [
    {"substance": "Biotin-YGRKKRRQRRRGGKRIKELELLLMSTENELK-NH2 [BIOMYB]", "values": [
      {"measurement": "binding to / pull-down of CBP", "setting": "[1]", "value": "able to pull down CBP; also recorded: specific binding"}
    ]},
    {"substance": "FITC-AHA-YGRKKRRQRRR-NH2 [FITC-TAT]", "values": [
      {"measurement": "KD (apparent binding affinity to purified KIX)", "setting": "purified CBP-KIX domain", "value": "no interaction seen"},
      {"measurement": "intranuclear penetration (FITC-Hoechst overlay)", "setting": "MOLM13 cells", "value": "overlap of FITC and Hoechst in the nucleus"},
      {"measurement": "intranuclear penetration (FITC-Hoechst overlay)", "setting": "MOLM13 cells; listed as SEQ ID NO:6", "value": "intranuclear penetration"}
    ]},
    {"substance": "[Ac]-KLGNETSMGLLELEKIGKGG-RRRQRRKKRGY-[NH2] [TG3, reference compound]", "values": [
      {"measurement": "MYB:CBP complex in cells", "setting": "MYB:CBP complex", "value": "inactive"},
      {"measurement": "AML cell death (live cells on Day 6)", "setting": "[2]", "value": "inactive"}
    ]},
    {"substance": "acetyl-KLENETSMLLLELEKIRKGGRRRQRRKKRGYK-biotin-NH2 [RI-BIOMYB]", "values": [
      {"measurement": "binding to / pull-down of CBP", "setting": "[1]", "value": "specific binding"}
    ]}
  ]
}
